From paper PMC7520961, “Safety evaluation of the interchangeable use of robenacoxib in commercially-available tablets and solution for injection in cats” (BMC Veterinary Research, 2020)

Key:
cats [1] = assay: Buccal mucosal bleeding time (BMBT); format: in vivo; settings: one 2X cat
Protocol: Buccal mucosal bleeding times (BMBT) were measured on all animals on Days − 5 and 36 following ECG examinations while the animals were sedated. The upper lip was everted and a Surgicutt incision device was used to create a small incision (approximately 1 mm in depth and 3.5 mm in length). Blood flow from the incision site was blotted using filter paper below the incision. The elapsed time from the triggering of the device until blood no longer appeared on the filter paper was recorded as the bleed time. Clinical pathology evaluations were conducted on all animals on Days − 13 and − 6 and prior to dosing on Days 13 and 37. Because reference values given by the laboratory were (slightly) different for males and females, they were combined (i.e. lower of the two lower bounds to higher of the two upper bounds) for the tables. […] Hematology variables were determined using an Advia 120 or Advia 2120 (Siemens, Munich, Germany), light microscope, or sediplast column (Polymedco, NY, US). Coagulation variables were determined using a Stago Compact (Diagnostica Stago, Parsippany, NJ, US), clinical chemistry variables were determined using an Olympus AU2700 or AU640e (Olympus Diagnostics, Southall, UK), and urinalysis variables were determined using a Clinitek-500 or Atlas (Siemens, Munich, Germany), Reichert VET 360 (Reichert Technologies, Buffalo, New York, USA), or light microscope.

cats [2] = assay: Hematology, coagulation and urinalysis (target animal safety study); format: in vivo, cat; settings: for Absolute Punctate Reticulocyte (mean ± SD) / Basophils (mean ± SD) / Other Cells (mean ± SD) / Monocytes (mean ± SD) / Eosinophils (mean ± SD) / Neutrophils (mean ± SD) / Lymphocytes (mean ± SD) / Erythrocytes (mean ± SD) / Leukocytes (mean ± SD) / Hemoglobin (mean ± SD) / Prothrombin Time (mean ± SD) / APTT (mean ± SD) / MCH (mean ± SD) / Absolute Aggregate Reticulocyte (mean ± SD) / Hematocrit (mean ± SD) / MCHC (mean ± SD) / MCV (mean ± SD) / Platelets (mean ± SD) / Fibrinogen (mean ± SD): post-treatment, average of days 13 and 37; for Basophils (mean ± SD): reference range 0 - 0.03; for Other Cells (mean ± SD): reference range 0 - 0.05; for Monocytes (mean ± SD): reference range 0 - 0.81; for Eosinophils (mean ± SD): reference range 0 - 1.31, significant treatment x sex effect (p<0.1); for Neutrophils (mean ± SD): reference range 0 - 12.65; for Lymphocytes (mean ± SD): reference range 2.18 - 13.48; for Erythrocytes (mean ± SD): reference range 5.36 - 10.78; for Leukocytes (mean ± SD): reference range 6.3 - 27.2; for Hemoglobin (mean ± SD): reference range 7.5 - 14.4; for Prothrombin Time (mean ± SD): reference range 8.7 - 11; for APTT (mean ± SD): reference range 11.2 - 18.7; for MCH (mean ± SD): reference range 11.9 - 15.1; for Absolute Aggregate Reticulocyte (mean ± SD): reference range 12.9 - 106.6; for Hematocrit (mean ± SD): reference range 22.5 - 41.6; for MCHC (mean ± SD): reference range 30.4 - 38; for MCV (mean ± SD): reference range 34.3 - 47.5; for Platelets (mean ± SD): reference range 107 - 779; for Fibrinogen (mean ± SD): reference range 152 - 278
Protocol: Buccal mucosal bleeding times (BMBT) were measured on all animals on Days − 5 and 36 following ECG examinations while the animals were sedated. The upper lip was everted and a Surgicutt incision device was used to create a small incision (approximately 1 mm in depth and 3.5 mm in length). Blood flow from the incision site was blotted using filter paper below the incision. The elapsed time from the triggering of the device until blood no longer appeared on the filter paper was recorded as the bleed time. Clinical pathology evaluations were conducted on all animals on Days − 13 and − 6 and prior to dosing on Days 13 and 37. Because reference values given by the laboratory were (slightly) different for males and females, they were combined (i.e. lower of the two lower bounds to higher of the two upper bounds) for the tables. Animals were fasted 8–12 hours overnight prior to blood collection. Blood samples (3.0 mL) were collected from the jugular vein into tubes containing K3EDTA for evaluation of hematology parameters, sodium citrate for evaluation of coagulation parameters, and serum separators with no anticoagulant for the clinical chemistry samples. Urine samples were collected on Days […], 13, and 37 by replacing the litter in the litter box with NoSorb® (Creative Science, LLC, Ballwin, MO, USA) for at least 16 hours. Hematology variables were determined using an Advia 120 or Advia 2120 (Siemens, Munich, Germany), light microscope, or sediplast column (Polymedco, NY, US). Coagulation variables were determined using a Stago Compact (Diagnostica Stago, Parsippany, NJ, US), clinical chemistry variables were determined using an Olympus AU2700 or AU640e (Olympus Diagnostics, Southall, UK), and urinalysis variables were determined using a Clinitek-500 or Atlas (Siemens, Munich, Germany), Reichert VET 360 (Reichert Technologies, Buffalo, New York, USA), or light microscope.
Post-treatment values were analyzed using RMANCOVA, with treatment group, sex, time, and their interactions as fixed model effects and the pre-treatment value measured closest to dosing as a covariate. Repeated measurements in the same animal were modeled using a compound symmetry or heterogeneous compound symmetry correlation structure (for food consumption: autoregressive first-order or heterogeneous autoregressive first-order); the model with the smallest Akaike’s Information Criterion was selected for each outcome.
If any of the interactions involving treatment was significant (p < 0.1 for the two-factor interactions or p < 0.05 for the three-factor interaction), it was inappropriate to evaluate the main or overall treatment effect independently of the interacting factor and, as such, treatment comparisons were conducted for each level of the interacting factor. If none of the interactions involving treatment were significant, overall treatment differences were assessed.

cats [3] = system: cats; set-up: method as in ref 12 = [12]; 12. US Food and Drug Administration Freedom of Information Summary: Original New Animal Drug Application NADA 141–320 (Onsior Robenacoxib Tablets for Cats) 2011.; settings: six-month target animal safety study, oral robenacoxib at 1, 3 and 5X; cited from earlier work
cats [4] = settings: in vivo
[5] = 1X (oral ≥2.4, SC 2.0 mg/kg/day)
[6] = 2X (oral ≥4.8, SC 4.0 mg/kg/day)
[7] = 3X (oral ≥7.2, SC 6.0 mg/kg/day)

CCc1ccc(Nc2c(F)c(F)cc(F)c2F)c(CC(=O)O)c1 [robenacoxib]
increase in BMBT value compared to pre-treatment value (cats [1]): approximately seven-fold | Absolute Punctate Reticulocyte (mean ± SD) (cats [2]; [5]): 2277 ± 658 10^3/µL | Basophils (mean ± SD) (cats [2]; [5]): 0.006 ± 0.011 10^3/µL | Other Cells (mean ± SD) (cats [2]; [5]): 0.62 ± 0.95 10^3/µL | Monocytes (mean ± SD) (cats [2]; [5]): 0.27 ± 0.22 10^3/µL | Eosinophils (mean ± SD) (cats [2]; [5]): 1.08 ± 0.40 10^3/µL | Neutrophils (mean ± SD) (cats [2]; [5]): 5.28 ± 1.75 10^3/µL | Lymphocytes (mean ± SD) (cats [2]; [5]): 6.69 ± 2.61 10^3/µL | Erythrocytes (mean ± SD) (cats [2]; [5]): 7.24 ± 0.88 10^6/µL | Leukocytes (mean ± SD) (cats [2]; [5]): 13.95 ± 4.43 10^3/µL | Hemoglobin (mean ± SD) (cats [2]; [5]): 9.96 ± 0.98 g/dL | Prothrombin Time (mean ± SD) (cats [2]; [5]): 11.03 ± 0.62 s | APTT (mean ± SD) (cats [2]; [5]): 23.35 ± 16.35 s | MCH (mean ± SD) (cats [2]; [5]): 13.82 ± 0.81 pg | Absolute Aggregate Reticulocyte (mean ± SD) (cats [2]; [5]): 4.02 ± 4.81 10^3/µL | Hematocrit (mean ± SD) (cats [2]; [5]): 30.66 ± 3.36% | MCHC (mean ± SD) (cats [2]; [5]): 32.53 ± 0.55 g/dL | MCV (mean ± SD) (cats [2]; [5]): 42.49 ± 2.78 fL | Platelets (mean ± SD) (cats [2]; [5]): 253.7 ± 157.1 10^3/µL | Fibrinogen (mean ± SD) (cats [2]; [5]): 180.8 ± 37.0 mg/dL | Absolute Punctate Reticulocyte (mean ± SD) (cats [2]; [6]): 1915 ± 702 10^3/µL | Basophils (mean ± SD) (cats [2]; [6]): 0.010 ± 0.011 10^3/µL | Other Cells (mean ± SD) (cats [2]; [6]): 0.30 ± 0.71 10^3/µL | Monocytes (mean ± SD) (cats [2]; [6]): 0.28 ± 0.14 10^3/µL | Eosinophils (mean ± SD) (cats [2]; [6]): 0.94 ± 0.52 10^3/µL | Neutrophils (mean ± SD) (cats [2]; [6]): 5.73 ± 1.34 10^3/µL | Lymphocytes (mean ± SD) (cats [2]; [6]): 6.16 ± 1.81 10^3/µL | Erythrocytes (mean ± SD) (cats [2]; [6]): 7.58 ± 0.82 10^6/µL | Leukocytes (mean ± SD) (cats [2]; [6]): 13.43 ± 3.10 10^3/µL | Hemoglobin (mean ± SD) (cats [2]; [6]): 9.99 ± 1.06 g/dL | Prothrombin Time (mean ± SD) (cats [2]; [6]): 10.77 ± 0.56 s | APTT (mean ± SD) (cats [2]; [6]): 16.68 ± 2.52 s | MCH (mean ± SD) (cats [2]; [6]): 13.21 ± 0.99 pg | Absolute Aggregate Reticulocyte (mean ± SD) (cats [2]; [6]): 1.38 ± 4.14 10^3/µL | Hematocrit (mean ± SD) (cats [2]; [6]): 30.17 ± 3.65% | MCHC (mean ± SD) (cats [2]; [6]): 33.14 ± 0.65 g/dL | MCV (mean ± SD) (cats [2]; [6]): 39.86 ± 3.11 fL | Platelets (mean ± SD) (cats [2]; [6]): 334.7 ± 155.9 10^3/µL | Fibrinogen (mean ± SD) (cats [2]; [6]): 180.3 ± 22.2 mg/dL | Absolute Punctate Reticulocyte (mean ± SD) (cats [2]; [7]): 2129 ± 555 10^3/µL | Basophils (mean ± SD) (cats [2]; [7]): 0.006 ± 0.007 10^3/µL | Other Cells (mean ± SD) (cats [2]; [7]): 0.44 ± 0.92 10^3/µL | Monocytes (mean ± SD) (cats [2]; [7]): 0.26 ± 0.15 10^3/µL | Eosinophils (mean ± SD) (cats [2]; [7]): 1.10 ± 0.40 10^3/µL | Neutrophils (mean ± SD) (cats [2]; [7]): 5.46 ± 1.04 10^3/µL | Lymphocytes (mean ± SD) (cats [2]; [7]): 7.50 ± 2.64 10^3/µL | Erythrocytes (mean ± SD) (cats [2]; [7]): 7.73 ± 0.88 10^6/µL | Leukocytes (mean ± SD) (cats [2]; [7]): 14.76 ± 3.66 10^3/µL | Hemoglobin (mean ± SD) (cats [2]; [7]): 10.13 ± 1.15 g/dL | Prothrombin Time (mean ± SD) (cats [2]; [7]): 10.84 ± 0.46 s | APTT (mean ± SD) (cats [2]; [7]): 16.83 ± 2.52 s | MCH (mean ± SD) (cats [2]; [7]): 13.11 ± 0.65 pg | Absolute Aggregate Reticulocyte (mean ± SD) (cats [2]; [7]): 1.45 ± 4.17 10^3/µL | Hematocrit (mean ± SD) (cats [2]; [7]): 30.90 ± 3.81% | MCHC (mean ± SD) (cats [2]; [7]): 32.80 ± 1.57 g/dL | MCV (mean ± SD) (cats [2]; [7]): 40.03 ± 2.65 fL | Platelets (mean ± SD) (cats [2]; [7]): 301.4 ± 173.8 10^3/µL | Fibrinogen (mean ± SD) (cats [2]; [7]): 172.5 ± 16.3 mg/dL | coagulation or urinalysis values between groups (cats [2]; all groups during the study): no significant differences | QT interval effect (cats [3]): dose-dependent QT prolongation | arrhythmias (cats [3]): no arrhythmias were documented | opthalmoscopic, physical and neurological examinations (cats [4]): no treatment-related effects
